Source: PubChem BioAssay AID256 (DTP/NCI, 2004)
Several values for one entry are separate records, joined by “and”; a condition that tells them apart may be missing. Identical values can stand only once. Inconclusive results and toxic doses are left out. How the source made its calls: active means survival T/C of 150% or more; inactive means T/C below 125% in these data.

Test system: CD2F1 mice, L1210 leukemia ip, survival T/C
Experiment: NCI In Vivo Anticancer Drug Screen. Data for tumor model L1210 Leukemia (intraperitoneal) in CD2F1 (CDF1) mice
Conditions: endpoint: mean survival time, higher = longer survival
Outline: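 Vehicle-treated tumor-bearing mice served as controls (C) for compound-treated mice (T). Reported figure is T divided by C.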

[1] = dose: 100.0 mg/kg/injection, schedule: Q04DX002 (ip), vehicle: saline with Tween-80
[2] = dose: 200.0 mg/kg/injection, schedule: Q04DX002 (ip), vehicle: saline with Tween-80
[3] = dose: 400.0 mg/kg/injection, schedule: Q04DX002 (ip), vehicle: saline with Tween-80
[4] = dose: 75.0 mg/kg/injection, schedule: Q01DX001 (ip), vehicle: saline
[5] = dose: 150.0 mg/kg/injection, schedule: Q01DX001 (ip), vehicle: saline
[6] = dose: 400.0 mg/kg/injection, schedule: Q04DX003 (ip), vehicle: saline with Tween-80
[7] = dose: 100.0 mg/kg/injection, schedule: Q01DX009 (ip), vehicle: saline with Tween-80
[8] = dose: 200.0 mg/kg/injection, schedule: Q01DX009 (ip), vehicle: saline with Tween-80
[9] = dose: 400.0 mg/kg/injection, schedule: Q01DX009 (ip), vehicle: saline with Tween-80
[10] = dose: 100.0 mg/kg/injection, schedule: Q04DX003 (ip), vehicle: saline
[11] = dose: 50.0 mg/kg/injection, schedule: Q04DX002 (ip), vehicle: saline with Tween-80
[12] = dose: 200.0 mg/kg/injection, schedule: Q04DX003 (ip), vehicle: saline
[13] = dose: 400.0 mg/kg/injection, schedule: Q04DX003 (ip), vehicle: saline
[14] = dose: 100.0 mg/kg/injection, schedule: Q01DX001 (ip), vehicle: saline with Tween-80
[15] = dose: 200.0 mg/kg/injection, schedule: Q01DX001 (ip), vehicle: saline with Tween-80
[16] = dose: 400.0 mg/kg/injection, schedule: Q01DX001 (ip), vehicle: saline with Tween-80
[17] = dose: 12.5 mg/kg/injection, schedule: Q01DX005 (ip), vehicle: distilled water + Tween-80
[18] = dose: 25.0 mg/kg/injection, schedule: Q01DX005 (ip), vehicle: distilled water + Tween-80
[19] = dose: 50.0 mg/kg/injection, schedule: Q01DX005 (ip), vehicle: distilled water + Tween-80
[20] = dose: 100.0 mg/kg/injection, schedule: Q01DX005 (ip), vehicle: distilled water + Tween-80
[21] = dose: 200.0 mg/kg/injection, schedule: Q01DX005 (ip), vehicle: distilled water + Tween-80
[22] = dose: 25.0 mg/kg/injection, schedule: Q01DX009 (ip), vehicle: Klucel (hydroxypropylcellulose) (HPC)
[23] = dose: 50.0 mg/kg/injection, schedule: Q01DX009 (ip), vehicle: Klucel (hydroxypropylcellulose) (HPC)

Measured: T/C

Cc1ccc(N2CC=C(c3ccccc3)OP2(=O)N(CCCl)CCCl)cc1 (stereo not drawn)
inactive: dose: 31.25 mg/kg/injection, schedule: Q01DX001 (ip), vehicle: saline 100 % of control | dose: 62.5 mg/kg/injection, schedule: Q01DX001 (ip), vehicle: saline 102 % of control | dose: 125.0 mg/kg/injection, schedule: Q01DX001 (ip), vehicle: saline 100 % of control | dose: 250.0 mg/kg/injection, schedule: Q01DX001 (ip), vehicle: saline 100 % of control | dose: 500.0 mg/kg/injection, schedule: Q01DX001 (ip), vehicle: saline 100 % of control

COC(=O)C(Cc1[nH]c(N=Nc2ccc(Br)cc2)nc1N=Nc1ccc(Br)cc1)NC(C)=O (stereo not drawn)
inactive: [1] 93 % of control | [2] 96 % of control | [3] 96 % of control

Cc1ccc2c(c1)nc1c3ccccc3nnn21
inactive: [4] 95 % of control | [5] 95 % of control

BrN1CCCCC1
inactive: dose: 100.0 mg/kg/injection, schedule: Q04DX002 (ip), vehicle: saline 103 % of control | dose: 200.0 mg/kg/injection, schedule: Q04DX002 (ip), vehicle: saline 122 % of control | dose: 400.0 mg/kg/injection, schedule: Q04DX002 (ip), vehicle: saline 103 % of control

NC(N)=Nc1ccc(C(=O)O)cc1
inactive: dose: 100.0 mg/kg/injection, schedule: Q04DX003 (ip), vehicle: saline with Tween-80 100 % of control | dose: 200.0 mg/kg/injection, schedule: Q04DX003 (ip), vehicle: saline with Tween-80 95 % of control | [6] 88 % of control

CC(C)C1=CC2=CCC3C(C)(C#N)CCCC3(C)C2CC1CC#N (stereo not drawn)
inactive: [7] 92 % of control | [8] 86 % of control | [9] 86 % of control

Cc1cccc[n+]1CC(=O)c1ccccc1
inactive: dose: 25.0 mg/kg/injection, schedule: Q04DX003 (ip), vehicle: saline 104 % of control | dose: 50.0 mg/kg/injection, schedule: Q04DX003 (ip), vehicle: saline 96 % of control | [10] 96 % of control

N#CCc1[nH]nc2ncnc(N)c12
inactive: dose: 12.5 mg/kg/injection, schedule: Q01DX005 (ip), vehicle: water 100 % of control | dose: 25.0 mg/kg/injection, schedule: Q01DX005 (ip), vehicle: water 100 % of control | dose: 50.0 mg/kg/injection, schedule: Q01DX005 (ip), vehicle: water 105 % of control | dose: 100.0 mg/kg/injection, schedule: Q01DX005 (ip), vehicle: water 105 % of control

CCCC(=O)/C=C\c1ccccc1
inactive: [11] 102 % of control | [1] 102 % of control | [2] 91 % of control | [3] 94 % of control

COc1ccc(-c2nc(N)nc3c2CN(CCCC(=O)O)C3=O)cc1
inactive: [10] 98 % of control | [12] 98 % of control | [13] 96 % of control

COc1cc(/C=C/c2nc3ccccc3nc2/C=C/c2cc(OC)c(OC)c(OC)c2)cc(OC)c1OC
inactive: [8] 94 % of control | [9] 100 % of control | [6] 93 % of control

CCCCNc1cc(Nc2ccc(Br)cc2)nc(N)n1
inactive: dose: 50.0 mg/kg/injection, schedule: Q01DX009 (ip), vehicle: saline with Tween-80 98 % of control | [7] 97 % of control | [8] 98 % of control

NNN1CCN(N)CC1
inactive: [14] 103 % of control | [15] 111 % of control | [16] 91 % of control

Nc1ncnc2c1nc(N1CCCCC1)n2C1OC(CO)C(O)C1O (stereo not drawn)
inactive: [17] 92 % of control and 98 % of control | [18] 103 % of control and 97 % of control | [19] 99 % of control and 98 % of control | [20] 101 % of control and 100 % of control | [21] 97 % of control and 100 % of control

COC(=O)C(O)C(O)C(O)C(O)C(O)CO (stereo not drawn)
inactive: dose: 100.0 mg/kg/injection, schedule: Q01DX001 (ip), vehicle: saline 95 % of control | dose: 200.0 mg/kg/injection, schedule: Q01DX001 (ip), vehicle: saline 98 % of control | dose: 400.0 mg/kg/injection, schedule: Q01DX001 (ip), vehicle: saline 96 % of control

Cn1c2nc3ccccc3c-2nc2ccccc21
inactive: dose: 1.56 mg/kg/injection, schedule: Q01DX009 (ip), vehicle: water 100 % of control | dose: 3.13 mg/kg/injection, schedule: Q01DX009 (ip), vehicle: water 93 % of control | dose: 6.25 mg/kg/injection, schedule: Q01DX009 (ip), vehicle: water 88 % of control | dose: 12.5 mg/kg/injection, schedule: Q01DX009 (ip), vehicle: water 89 % of control | [22] 101 % of control | dose: 25.0 mg/kg/injection, schedule: Q01DX009 (ip), vehicle: water 86 % of control and 89 % of control | [23] 103 % of control | dose: 100.0 mg/kg/injection, schedule: Q01DX009 (ip), vehicle: Klucel (hydroxypropylcellulose) (HPC) 105 % of control | dose: 200.0 mg/kg/injection, schedule: Q01DX009 (ip), vehicle: Klucel (hydroxypropylcellulose) (HPC) 95 % of control

O=C(Nc1ccc2c(c1)Cc1cccc(NC(=O)C(Cl)Cl)c1-2)C(Cl)Cl
inactive: dose: 12.5 mg/kg/injection, schedule: Q01DX009 (ip), vehicle: Klucel (hydroxypropylcellulose) (HPC) 90 % of control | [22] 93 % of control | [23] 87 % of control

O=C(N=C=S)c1ccccc1
inactive: dose: 100.0 mg/kg/injection, schedule: Q04DX003 (ip), vehicle: other 90 % of control | dose: 200.0 mg/kg/injection, schedule: Q04DX003 (ip), vehicle: other 101 % of control | dose: 400.0 mg/kg/injection, schedule: Q04DX003 (ip), vehicle: other 101 % of control

CC(CN=Cc1ccccc1O)N=Cc1ccccc1O.[Cu] (stereo not drawn)
inactive: dose: 25.0 mg/kg/injection, schedule: Q04DX002 (ip), vehicle: saline with Tween-80 96 % of control | [11] 103 % of control | [1] 100 % of control | [2] 103 % of control

CCOC(=O)C(C)Sc1n[nH]c(=O)[nH]c1=O (stereo not drawn)
inactive: [17] 96 % of control | [18] 96 % of control | [19] 96 % of control | [20] 92 % of control | [21] 94 % of control

CCOC1(OCC)C2C=CC1C1C(=O)OC(=O)C12 (stereo not drawn)
inactive: [4] 103 % of control | [5] 108 % of control | dose: 300.0 mg/kg/injection, schedule: Q01DX001 (ip), vehicle: saline 102 % of control

COC(=O)c1ccc(OC)c2nc3c(C=O)c(OC)c(C)c(OC)c3nc12
inactive: [14] 94 % of control | [1] 98 % of control | [15] 95 % of control | [2] 106 % of control | [16] 103 % of control | [3] 106 % of control

N#CCC(C#N)C1C=CCC1 (stereo not drawn)
inactive: dose: 3.13 mg/kg/injection, schedule: Q04DX003 (ip), vehicle: saline 98 % of control | dose: 6.25 mg/kg/injection, schedule: Q04DX003 (ip), vehicle: saline 101 % of control

CC(C)C([N+](C)(C)C)P(=O)([O-])O (stereo not drawn)
inactive: [10] 101 % of control | [12] 96 % of control | [13] 101 % of control
